From the supplement of paper PMC10307832

Legend:
Assay in all cases: relative viability (nuclei count vs DMSO), 5 days (fraction); higher = more cells survive
CX-5461 + Tozasertib = compound: Cc1cnc(CNC(=O)c2c(=O)c3ccc(N4CCCN(C)CC4)nc3n3c2sc2ccccc23)cn1 [CX-5461] + Cc1cc(Nc2cc(N3CCN(C)CC3)nc(Sc3ccc(NC(=O)C4CC4)cc3)n2)n[nH]1 [Tozasertib] (partner 0.1 µM)
Method in brief: (§1)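 Nuclei were stained with Hoechst during a one-step fixation (final 0.05% Triton X-100, 1% formaldehyde, 1 ug/ml Hoechst) carried out 5 days after dosing, then counted on 4× images. The cells, lung cancer lines in 1536-well plates, had been dosed by pin tool the day after seeding with one drug alone or a fixed anchor-drug dose plus five library-drug doses (not always all listed) in √10 steps. Relative viability is the nuclei count in treated wells divided by that in vehicle wells, and each value is the median of duplicate plates.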

IMD-0354 + Bortezomib = compound: O=C(Nc1cc(C(F)(F)F)cc(C(F)(F)F)c1)c1cc(Cl)ccc1O [IMD-0354] + CC(C)C[C@H](NC(=O)[C@H](Cc1ccccc1)NC(=O)c1cnccn1)B(O)O [Bortezomib] (partner 0.002 µM)
Method in brief: as §1

IMD-0354 + Foretinib = compound: O=C(Nc1cc(C(F)(F)F)cc(C(F)(F)F)c1)c1cc(Cl)ccc1O [IMD-0354] + COc1cc2c(Oc3ccc(NC(=O)C4(C(=O)Nc5ccc(F)cc5)CC4)cc3F)ccnc2cc1OCCCN1CCOCC1 [Foretinib] (partner 0.25 µM)
Method in brief: as §1

IMD-0354 + Linsitinib = compound: O=C(Nc1cc(C(F)(F)F)cc(C(F)(F)F)c1)c1cc(Cl)ccc1O [IMD-0354] + C[C@]1(O)C[C@@H](c2nc(-c3ccc4ccc(-c5ccccc5)nc4c3)c3c(N)nccn32)C1 [Linsitinib] (partner 1 µM)
Method in brief: as §1

| Cell Line | relative viability (CX-5461 + Tozasertib; first compound 0.01 µM) | relative viability (CX-5461 + Tozasertib; first compound 0.03162 µM) | relative viability (CX-5461 + Tozasertib; first compound 0.1 µM) | relative viability (CX-5461 + Tozasertib; first compound 0.3162 µM) | relative viability (CX-5461 + Tozasertib; first compound 1 µM) | relative viability (IMD-0354 + Bortezomib; first compound 0.04 µM) | relative viability (IMD-0354 + Bortezomib; first compound 0.1265 µM) | relative viability (IMD-0354 + Bortezomib; first compound 0.4 µM) | relative viability (IMD-0354 + Bortezomib; first compound 1.265 µM) | relative viability (IMD-0354 + Bortezomib; first compound 4 µM) | relative viability (IMD-0354 + Foretinib; first compound 0.04 µM) | relative viability (IMD-0354 + Foretinib; first compound 0.1265 µM) | relative viability (IMD-0354 + Foretinib; first compound 0.4 µM) | relative viability (IMD-0354 + Foretinib; first compound 1.265 µM) | relative viability (IMD-0354 + Foretinib; first compound 4 µM) | relative viability (IMD-0354 + Linsitinib; first compound 0.04 µM) | relative viability (IMD-0354 + Linsitinib; first compound 0.1265 µM) | relative viability (IMD-0354 + Linsitinib; first compound 0.4 µM) | relative viability (IMD-0354 + Linsitinib; first compound 1.265 µM) | relative viability (IMD-0354 + Linsitinib; first compound 4 µM) |
| --- | --- | --- | --- | --- | --- | --- | --- | --- | --- | --- | --- | --- | --- | --- | --- | --- | --- | --- | --- | --- |
| NCI-H647 | 0.386 | 0.335 | 0.307 | 0.262 | 0.186 | 1.15 | 1.08 | 0.439 | 0.169 | 0.128 | 1.57 | 1.27 | 0.426 | 0.554 | 0.148 | 1.36 | 1.1 | 0.515 | 0.276 | 0.158 |
| NCI-H650 | 0.735 | 0.815 | 0.715 | 0.324 | 0.54 | 0.413 | 0.748 | 0.606 | 0.49 | 0.355 | 1.07 | 0.961 | 0.832 | 0.515 | 0.234 | 1.01 | 0.911 | 0.505 | 0.249 | 0.223 |
| NCI-H661 | 0.35 | 0.347 | 0.348 | 0.351 | 0.338 | 0.968 | 0.718 | 0.719 | 0.925 | 0.276 | 1.06 | 1.01 | 0.681 | 0.295 | 0.24 | 0.65 | 0.632 | 0.57 | 0.532 | 0.251 |
| NCI-H727 | 0.529 | 0.666 | 0.57 | 0.633 | 0.593 | 0.841 | 0.923 | 0.532 | 0.38 | 0.359 | 0.94 | 0.869 | 0.659 | 0.711 | 0.477 | 0.161 | 0.257 | 0.281 | 0.206 | 0.233 |
| NCI-H838 | 0.249 | 0.281 | 0.271 | – | 0.273 | 0.858 | 0.744 | 0.425 | 0.333 | 0.254 | 1.08 | 0.925 | 0.463 | 0.579 | 0.403 | 1.18 | 0.969 | 0.505 | 0.47 | 0.324 |
| NCI-H1355 | 0.579 | 0.594 | 0.53 | 0.323 | 0.548 | 1.42 | 1.24 | 0.833 | 0.224 | 0.256 | 1.11 | 0.943 | 0.646 | 0.908 | 0.298 | 1.04 | 0.708 | 0.757 | 0.795 | 0.203 |
| NCI-H1437 | 0.404 | 0.459 | – | 0.367 | 0.366 | 0.486 | 0.383 | 0.332 | 0.0977 | 0.196 | 1.34 | 1.16 | 0.624 | 0.424 | 0.251 | 1.2 | 1.01 | 0.515 | 0.114 | 0.249 |
| NCI-H1651 | 0.7 | 0.465 | – | 0.505 | 0.106 | 0.828 | 0.968 | 0.404 | 0.516 | 0.153 | 0.816 | 0.716 | 0.433 | 0.312 | 0.0982 | 1.03 | 0.901 | 0.429 | 0.0622 | 0.0566 |
| NCI-H1666 | 0.629 | 0.609 | 0.488 | 0.534 | 0.406 | 0.667 | 0.804 | 0.641 | 0.257 | 0.169 | 0.99 | 0.982 | 0.842 | 0.441 | 0.351 | 0.747 | 0.957 | 0.609 | 0.17 | 0.299 |
| NCI-H1734 | 0.261 | 0.293 | 0.266 | 0.209 | 0.238 | 1.22 | 1.17 | 0.385 | 0.211 | 0.259 | 0.928 | 0.902 | 0.548 | 0.549 | 0.19 | 1.04 | 0.936 | 0.513 | 0.596 | 0.231 |
| NCI-H1755 | 0.49 | 0.568 | 0.565 | 0.529 | 0.467 | 1.16 | 1.07 | 0.454 | 0.358 | 0.177 | 0.912 | 1.05 | 0.854 | 0.586 | 0.278 | 0.998 | 1.02 | 0.665 | 0.666 | 0.22 |
| NCI-H1915 | 0.426 | 0.471 | 0.417 | 0.312 | 0.426 | 0.833 | 1 | 0.396 | 0.738 | 0.183 | 0.976 | 1.15 | 0.491 | 0.818 | 0.272 | 0.968 | 1.12 | 0.944 | 0.866 | 0.255 |
| NCI-H1975 | 0.744 | 0.815 | 0.577 | 0.744 | 0.211 | 0.371 | 0.442 | 0.345 | 0.201 | 0.213 | 1.01 | 1.03 | 0.483 | 0.18 | 0.16 | 1.15 | 0.938 | 0.517 | 0.178 | 0.207 |
| NCI-H1993 | 0.614 | 0.585 | 0.566 | 0.599 | 0.556 | 1.03 | 1.28 | 0.578 | 0.506 | 0.517 | 0.768 | 0.869 | 0.699 | 0.477 | 0.559 | 0.671 | 0.747 | 0.696 | 0.491 | 0.567 |
| NCI-H2009 | 0.714 | 0.776 | 0.53 | 0.713 | 0.548 | 0.973 | 0.878 | 0.771 | 0.105 | 0.0845 | 1.22 | 1.18 | 0.817 | 0.406 | 0.147 | 1.16 | 1.12 | 1.02 | 0.465 | 0.139 |
| NCI-H2023 | 0.306 | 0.325 | 0.237 | 0.283 | 0.0913 | 1.02 | 0.97 | 0.843 | 0.114 | 0.081 | 0.938 | 0.867 | 0.571 | 0.225 | 0.0843 | 0.81 | 0.569 | 0.558 | 0.197 | 0.121 |
